What all share (test): NCI tumour cell line growth inhibition, 48 h
Assay [1] deals with RXF 393 renal.
The subject of assay [2] is MCF7 breast.
Assay [3] concerns SF-539 CNS.
Assay [4] relates to K-562 leukemia.
Assay [5] relates to SF-268 CNS.
The subject of assay [6] is NCI-H460 lung.
The subject of assay [7] is MOLT-4 leukemia.
The subject of assay [8] is A549 NSCLC.
The subject of assay [9] is HT29 colon.
Assay [10] has as its system SK-MEL-28 melanoma.

Where “and” joins values, the source holds several entries; their conditions need not be identical. Equal values may be shown once.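 Briefly, cells in 96-well plates were exposed to five compound concentrations for 48 h, and endpoints were estimated by linear interpolation. At the GI50, growth is halved. The concentration for full growth arrest is given as TGI.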

With `COc1cc(Nc2nc3cc(N)cc(N)c3nc2-c2ccccc2)cc(OC)c1OC`, the GI50 in [1] was 14.4 µM; in assay [2], 25.5 µM; in assay [3] it was 14.8 µM; in assay [4] it was 12.5 µM; in assay [5] it was 18.1 µM; in assay [6], 17.1 µM. Besides, the GI50 in assay [7] is 2.57 µM; in assay [8] it was 29.8 µM; in [10] it was 1.45 µM. For the same molecule, the TGI in assay [1] was found to be 34.4 µM; in [2], 94.5 µM; in [3], 28.9 µM; in [4], 40.1 µM; in assay [5], 60.8 µM; in assay [6] it was 52.8 µM. The TGI in assay [7] was 18 µM; in [8], over 100 µM; in [9], 35 µM; in assay [10], 20.7 µM.

In the case of `Fc1cccc(COc2ccc(Nc3ncnc4sc(-c5cccs5)cc34)cc2Cl)c1`, the GI50 in assay [1] was 4.37 µM; in assay [2], 0.75 µM; in assay [3] it was 5.55 µM; in [4], over 25 µM; in assay [5] it was 11.4 µM; in [6] it was 7.63 µM. Further, the GI50 in assay [7] was over 25 µM; in assay [8], 9.32 µM; in [9] it was 6.93 µM; in assay [10] it was 6.58 µM. Besides, the TGI is 12 µM in [1]; 8.42 µM in assay [2]; 15.3 µM in [3]; over 25 µM in assay [4]; over 22.8 µM in assay [5]; over 17 µM in assay [6]. Also, the TGI in assay [7] is over 25 µM; in assay [8], over 25 µM; in assay [9], 17.9 µM; in [10], over 22.8 µM.

Take `CCN(CC)c1ccc(/C=N/NC(=O)CSc2nc3ccccc3c(=O)n2CCc2ccc(S(N)(=O)=O)cc2)c(O)c1`: the GI50 in assay [1] is 2.17 µM; in assay [2], 1.64 µM; in [3], 2.42 µM; in assay [4], 1.75 µM; in assay [5] it was 2.05 µM; in assay [6] it was 0.595 µM. Moreover, the GI50 in [7] is 0.653 µM; in [8] it was 3.1 µM; in assay [9] it was 8.93 µM; in assay [10] it was 2.69 µM. Further, the TGI is 32.2 µM in assay [1]; over 100 µM in assay [2]; 66.5 µM in assay [3]; over 100 µM in [4]; over 100 µM in assay [5]; over 100 µM in [6]. The TGI in assay [7], in assay [8], in assay [9] and in [10] was over 100 µM each time.

For `Cc1nc([P+](c2ccccc2)(c2ccccc2)c2ccccc2)c(Sc2sc(-c3ccccc3)nc2[P+](c2ccccc2)(c2ccccc2)c2ccccc2)o1`, the GI50 was 1.78 µM in assay [1]; 0.669 µM in assay [2]; 2.3 µM in [3]; 0.368 µM in assay [4]; 2.02 µM in assay [5]; 1.13 µM in [6]. The GI50 in assay [7] was 1.8 µM; in [8] it was 1.87 µM; in assay [9], 0.861 µM; in assay [10], 1.99 µM. The TGI in assay [1] is 5.26 µM; in [2], 4.81 µM; in [3], 7.34 µM; in assay [4], 5.9 µM; in assay [5] it was 7.71 µM; in [6], 2.8 µM. For the same molecule, the TGI in [7] is 6.15 µM; in assay [8] it was 10.7 µM; in assay [9], 10.6 µM; in assay [10], 10.5 µM.

As for `C/C(=N\NC(=S)N1CCCCC1)c1ccccn1`, the GI50 was 0.295 µM in [1]; under 0.01 µM in assay [2]; 0.257 µM in assay [3]; under 0.01 µM in assay [4]; 0.0762 µM in assay [5]; under 0.0151 µM in assay [6]. The GI50 was 0.0175 µM in assay [7], 0.0235 µM in [8], under 0.01 µM in [9] and 1.13 µM in [10]. In addition, the TGI came out at 1.79 µM in assay [1]; 6.13 µM in assay [2]; 6.87 µM in [3]; 8.76 µM in assay [4]; 12.3 µM in [5]; 1.5 µM in assay [6]. For the same molecule, the TGI in assay [7] was 1.69 µM; in assay [8] it was 4.14 µM; in assay [9] it was 4.06 µM; in [10], 6.66 µM.

In the case of `Nc1nccc(-c2c(-c3ccc(F)cc3)ncn2C2CCNCC2)n1`, the GI50 in assay [1] was 2.35 µM and 3.6 µM; in [2] it was 0.62 µM and 0.827 µM; in [3], 23.5 µM and 8.37 µM; in assay [4], 5.92 µM and 2.92 µM; in [5], 5.92 µM and 2.76 µM; in assay [6] it was 1.55 µM and 1.36 µM. Further, the GI50 in assay [7] is 17.8 µM and 7.16 µM; in [8], 1.97 µM and 1.66 µM; in assay [9], 1.68 µM and 1.28 µM; in [10], 10.2 µM and 8.41 µM. The TGI in assay [1] is > 25 µM and 10.5 µM; in assay [2], over 17.2 µM; in assay [3], over 25 µM; in assay [4] it was over 25 µM; in assay [5] it was over 25 µM; in assay [6] it was over 25 µM. Further, the TGI in assay [7], in assay [8], in assay [9] and in assay [10] was over 25 µM each time.

As to `O=c1c2c(=NCCN3CCCC3)cc3c(=O)n(CCCN4CCOCC4)c(=O)c4c(-c5ccc(CN6CCCC6)cc5)cc(c(O)n1CCCN1CCOCC1)c2c4-3`, the GI50 in assay [1] was 0.0204 µM; in assay [2] it was 0.0284 µM; in assay [3] it was 0.0617 µM; in assay [4], 0.0195 µM; in [5] it was 0.0781 µM; in [6] it was 0.0247 µM. Further, the GI50 in [7] was under 0.0206 µM; in assay [8], 0.0288 µM; in assay [9], under 0.0115 µM; in [10], 0.156 µM. In addition, the TGI in assay [1] is 0.0779 µM; in [2], 0.446 µM; in assay [3], 0.274 µM; in assay [4], over 100 µM; in [5], 0.567 µM; in assay [6], 0.245 µM. For the same molecule, the TGI worked out at 5.37 µM in [7], 1.39 µM in assay [8], 0.413 µM in [9] and 0.557 µM in [10].

Values taken from PubChem BioAssay (NCI).
